Results from publication PMC5669010 (AIDS Research and Therapy, 2017).
Read-outs that look alike come from different tables or passages of the source.

Key:
[1] = cited from earlier work
[2] = system: wild-type (non-protease inhibitor-resistant) virus; conditions: cited from earlier work
[3] = human, in vivo, 24 h
Procedure: (§1) Plasma samples were frozen and stored at – 80 °C until analysis.
(§2) Addition of elvitegravir and cobicistat to the method was partly validated, including selectivity, linearity, accuracy and recovery, inter- and intra-run repeatability, and stability.
(§3) Elvitegravir and cobicistat concentrations were compared to historical controls.

clinical = conditions: human, in vivo, Elvitegravir Ctrough,ss, individual patients
Procedure: as §1, §2, §3

[4] = 60 subjects, darunavir 800 mg/cobicistat 150 mg with two NRTIs
[5] = population PK data for E/C/F/TDF, n = 419

CC(C)OC(=O)[C@H](C)N[P@](=O)(CO[C@H](C)Cn1cnc2c(N)ncnc21)Oc1ccccc1 [TAF, tenofovir alafenamide]
Plasma concentrations of TAF ([1]; PK substudy of E/C/F/TAF plus darunavir switch study): at the lower end of the efficacious range

COC(=O)N[C@H](C(=O)N[C@@H](Cc1ccccc1)[C@@H](O)CN(Cc1ccc(-c2ccccn2)cc1)NC(=O)[C@@H](NC(=O)OC)C(C)(C)C)C(C)(C)C [atazanavir]
Effect of coadministration with elvitegravir/cobicistat on atazanavir trough levels ([1]; human, in vivo): significant lowering of atazanavir trough levels

CC(C)c1nc(CN(C)C(=O)N[C@@H](CCN2CCOCC2)C(=O)N[C@H](CC[C@H](Cc2ccccc2)NC(=O)OCc2cncs2)Cc2ccccc2)cs1 [cobicistat]
Cobicistat 24-h level, mean ([1]; 59 HIV-infected patients, darunavir/cobicistat with emtricitabine and tenofovir DF): 33 ng/mL | Cobicistat C0h, mean [1, 4]: 76 ng/mL | Cobicistat Cmax, mean [1, 4]: 991 ng/mL | Cobicistat tmax, median [1, 4]: 3.5 h | Cobicistat 24-h concentration, mean ([1]; patients taking E/C/F/TDF with darunavir): 20.2 ng/mL

CC(C)CN(C[C@@H](O)[C@H](Cc1ccccc1)NC(=O)O[C@H]1CO[C@H]2OCC[C@H]21)S(=O)(=O)c1ccc(N)cc1 [darunavir]
Half maximal effective concentration (EC50) ([2]; wild-type (non-protease inhibitor-resistant) virus): 0.055 µg/mL | Protein-adjusted 50% inhibitory concentration (IC50) ([2]; wild-type virus): 0.055 µg/mL | Darunavir Cmax, mean [1, 4]: 7663 ng/mL | Darunavir tmax, median [1, 4]: 3.5 h

COc1cc2c(cc1Cc1cccc(Cl)c1F)c(=O)c(C(=O)O)cn2[C@H](CO)C(C)C [elvitegravir]
Elvitegravir Ctrough,ss relative to protein-adjusted IC95 (45 ng/mL) [3]: more than 2 fold | Elvitegravir Ctrough,ss, individual patients [3]: 82 ng/mL | Protein-adjusted 95% inhibitory concentration (IC95) ([2]; wild type virus): 0.045 µg/mL | concentration at 24 h (clinical): < 80 ng/mL | Elvitegravir Ctrough,ss, mean ([1]; E/C/F/TAF + DRV, N 15): 464 ng/mL | Elvitegravir Ctrough,ss, mean ([1]; E/C/F/TDF + DRV, N 24): 234 ng/mL | Elvitegravir Ctrough,ss, mean ([1]; E/C/F/TDF without darunavir, N 32): 250 ng/mL | Elvitegravir Ctrough,ss, mean ([1]; E/C/F/TDF without darunavir, N 419, population pharmacokinetic estimate): 451 ng/mL | Elvitegravir Cmax, mean [1, 5]: 1731 ng/mL | Elvitegravir tmax [1, 5]: 4.0 h
